From a melting point compilation (Tetko et al.; mined from patent text by program, amines drawn as free bases though some values may be those of a salt) come the findings set out here.

Compound `N#CCCN1CCC(COC(=O)c2cc(Cl)c(N)c3c2OCCO3)CC1` displayed a melting point of 101 to 103 °C.
On to `O=C1C=C(C(F)F)C(=O)c2ccccc21`, for which the melting point was found to be 74 °C.
To `CCN1C(=O)CC(C)(C)c2ccc(-c3nc4ccccc4[nH]3)cc21` belongs 257 to 259 °C; to `COC=C(C(=O)OC)c1csc2ccc(C=O)cc12`, 134 to 135 °C.
In the case of `Cc1noc(NC(=O)N2CCN(c3cc(-c4ccc(F)cc4)ncn3)CC2)c1C`, the melting point lay within 207 to 208 °C.
The result for `COc1cc(C=CC(=O)c2ccccc2[N+](=O)[O-])cc(OC)c1` reads 98.4 to 98.9 °C.
As to `CCCCc1nc2cccc(C(=O)OCOC(=O)C(C)(C)C)c2n1Cc1ccc(-c2ccccc2-c2nnn[nH]2)cc1`, the melting point was 102 to 105 °C.
For `CCCCCCCCCCCCCCCC(=O)OCCCCN`, the melting point lay in the range of 59 to 61 °C.
The compound `CCCOc1ccc(-c2ccc(=O)[nH]n2)cc1OC` returned a melting point of 186 °C.
As for `CCCn1c(=O)c2[nH]c(C)nc2n(CCC)c1=O`, the melting point is 202 to 203 °C.
To `CCOC(=O)c1c(O)c2ccccc2n(C)c1=O` belongs 67 °C.
The result for `Cc1ccc(C(=O)c2c(O)cc(C(=O)O)cc2[N+](=O)[O-])cc1` reads 250 to 251 °C.
For `CCOC(=O)c1c(=O)c2cc(F)c(Cl)cc2n2c(CN(C)C)csc12`, the melting point worked out at 276 °C.
To `CCOc1ccc(OC)cc1C(N)=O` belongs 128 to 130 °C.
To `OCCc1ccc(OCc2ccccc2)cc1` belongs 85 °C; to `COc1ccc2c(c1)c(OC(C)C)c(C(=O)O)n2-c1ccccc1`, 110 °C; to `COCc1nc(Cl)c(Oc2cc(OC)ccc2Cl)c(Cl)n1`, 105 °C.
The result for `CCN(CC)c1ccc(-c2cc(-c3ccc(C(=O)O)cc3)ccc2CCCNC2CCCCC2)cc1C(C)(C)C` reads 253 °C.
`CCCC(=O)Oc1ccc(-c2nc(-c3ccc(N(C)C)cc3)c(C)[nH]2)cc1OC` returned a melting point of 62 to 64 °C.
Regarding `Cc1c(C)c2c(c(C)c1N)CC(C)(CN1CCN(C(=O)CCC(c3ccccc3)c3ccccc3)CC1)O2` (stereo unspecified), the melting point was in the range of 135 to 138 °C.
To `CC=COC1=C(O)C(CCC=CCCCCCCCCCCCCCC)OC1=O` (stereo unspecified) belongs 42 to 45 °C; to `O=C1NCCN(Cc2cc(=O)c(OCc3ccccc3)cn2Cc2ccccc2)C1=O`, 260 to 265 °C; to `Cc1cn(CCC(=O)N(C)C)nc1-c1ccccc1`, 60 to 63 °C.
Consider `COCCOCc1c(CN(C)CC(O)c2ncccn2)sc2c(=O)c(C(=O)NCc3ccc(Cl)cc3)cn(C)c12` (stereo unspecified), for which the melting point is 146 to 148 °C.
Regarding `NC(=O)c1nc(Cl)cc(N)c1Cl`, the melting point lay within 240 to 241 °C.
In the case of `CC(CCCc1ccc(F)cc1)c1cc(NS(C)(=O)=O)c2c(c1)OC(C)(C)c1ccncc1-2` (stereo unspecified), the melting point lay in the range of 208 to 209 °C.
Take `Nc1cccc(NCCCN2CCOCC2)c1`: the melting point was 61 to 65 °C.
The result for `CCCCn1nnc(-c2cccc(-c3ccnc4c(C(=O)c5cccs5)cnn34)c2)n1` reads 90 °C.
To `CC#CCOc1ccc(S(=O)(=O)C(C(=O)NO)c2cccc3ccccc23)cc1` (stereo unspecified) belongs 213 °C.
`COc1ccccc1S(=O)(=O)N(C)c1cccc2cc(C3=NCC(CC(=O)Nc4nnc[nH]4)S3)[nH]c12` (stereo unspecified) returned a melting point of 208 to 209 °C.
`CC(C)(C)C(=O)C(Oc1ccc(Cl)cc1)c1ccccc1` (stereo unspecified) yielded a melting point of 103 °C.
The result for `COc1ccc(CCN(C)CCCOc2ccc(NC(=O)c3cccc4c(=O)c5ccccc5[nH]c34)cc2)cc1` reads 160 °C; that for `CCc1c(C(=O)C(N)=O)c2c(N)cccc2n1Cc1ccccc1`, 140 to 144 °C; that for `O=C1CN(c2ccc(Oc3ccccc3)cc2)C(=S)N1c1ccc([N+](=O)[O-])cc1`, 204 °C.
The result for `CC(=NOCCOc1ccc(CC2SC(=O)NC2=O)cc1)c1ccc2ccccc2n1` (stereo unspecified) reads 162 to 163 °C.
To `CCOc1cccc2oc(C(N)=O)cc12` belongs 113 °C.
As for `O=C(NC1(C(=O)O)CCc2cc(O)ccc2C1)C(F)(F)F` (stereo unspecified), the melting point lay in the range of 70 to 95 °C.
The result for `Nc1ccc(C2CCN(C(=O)C(F)(F)F)CC2)cc1` reads 111 to 112 °C; that for `N#CN=C(Nc1cccnc1)Oc1ccccc1`, 154 to 155 °C.
To `ClCCCc1ccc(OCc2ccccc2)cc1` belongs 34 to 35 °C; to `CC(C)(C)C(NCCSC12CC3CC(CC(C3)C1)C2)C(=O)O` (stereo unspecified), 220 to 230 °C; to `Cc1ccc(C=NO)cc1Cl`, 66 to 68 °C.
In turn, `O=C(Nc1c(C(O)(C(F)(F)F)C(F)(F)F)ccc2ccccc12)c1cccc(Cl)c1` registered a melting point of 179 to 181 °C.
The result for `N#Cc1ccc(-c2cn(-c3ccc(Br)cc3)c(SCc3cccnc3)n2)cc1` reads 177 to 178 °C; that for `CS(=O)(=O)c1ccc(-c2cnn(-c3cccc(Cl)c3)c(=O)c2Cc2cccc(F)c2)cc1`, 142 to 143 °C; that for `CCOC(=O)Cc1csc(-c2ccccc2O)n1`, 35.5 to 36.5 °C.
To `O=C1COc2cc(SCc3ccccc3)ccc2N1` belongs 153 to 154 °C.
`CC(C)C1Cc2cc(C=O)sc2C1` (stereo unspecified) had a melting point below 50 °C.
Compound `O=c1[nH]c2ccc(Cl)cc2c(=O)c2ccccc12` came in with a melting point of 289 to 293 °C.
The result for `O=C(Oc1ccccc1)n1c(=O)c(F)cn(C2CC(OCc3ccccc3)C(CO)O2)c1=O` (stereo unspecified) reads 110 to 112 °C; that for `CCN(CC)c1ccc(-c2cc(-c3ccc(C(=O)O)cc3)ccc2O)cc1C(C)(C)C`, 190 °C.
Compound `Nc1sc2c(c1C(=O)c1ccc(OCc3ccccc3)cc1)CCN(C(=O)OCc1ccccc1)C2` had a melting point of 151 to 152 °C.
As for `COCc1nc(C(C)(C)C)c[nH]1`, the melting point was in the range of 65 to 66 °C.
The result for `CN(CCCc1cccc(Oc2ccc(C(F)(F)F)cc2)c1)N=O` reads 75 to 76 °C; that for `C=CC(=O)OCCOc1ccc(C(=O)C(C)(C)OC(=O)C=C)cc1`, 71 °C.
For the compound `Cc1ccc(C(=O)C=Cc2cc(O)c(O)c([N+](=O)[O-])c2)cc1`, the melting point is 184 to 186 °C.
Take `O=[N+]([O-])c1sc(-n2cccc2)nc1Cl`: the melting point is 138 to 139 °C.
Regarding `CN1C(=O)[C@H](NC(=O)/C=C/c2ccccc2Cl)N=C(c2ccccc2)c2ccccc21`, the melting point was 128 to 131 °C.
The result for `CNC(=O)Nc1cc(C(Cl)(Cl)Cl)ccn1` reads 192 to 195 °C; that for `CCCCCCCCCCCc1[nH]c2cc(C(=O)O)ccc2c1C`, 153 to 156 °C; that for `CCCCSc1cc(C(=O)O)cc(N)c1Oc1ccccc1`, 131 to 132 °C.
The result for `CCN(CC)c1ccc(NC(=S)N(C)N)cn1` reads 147 to 149 °C; that for `C=CCOC(=O)C(C)(C)Cc1c(SC(C)(C)C)c2cc(O)ccc2n1Cc1ccc(Cl)cc1`, 150 to 151 °C; that for `CC(C)Oc1cccc(=O)n1O`, 119 to 120 °C.
`Cc1oc(-c2ccccc2)nc1CCOc1cc(CO)on1` yielded a melting point of 115 to 116 °C.
For `CCc1ccc2c(c1)C(Cl)Cc1ccc(F)cc1S2` (stereo unspecified), the melting point was 68 to 70 °C.

The term melting point denotes the temperature of the solid-liquid transition.
